# Laboratory results from patent US20070087021A1, “METHOD OF PROTECTING AGAINST CHRONIC INFECTIONS” (priority 1997, published 2007).
# What was measured:
# coccidiosis [1] = experiment: Paired-barn comparison repeated: vaccine/monensin treatment vs monensin alone; type: in vivo, poultry; conditions: cockerels
# Procedure: (§1) A gel form vaccine was prepared by first adding 200 ml of hot tap water to 5 gm of kappa carrageenan Bengel MB 910 in a container and mixing until the MB 910 had dissolved. To this solution was added 200 ml of a solution containing 500 oocysts per ml of a mixture of Eimeria acervulina, E. maxima and E. tenella and the combined solution was mixed. The solution was then poured into a plastic watering dish and allowed to cool and get at 4° C.
# (§2) A paired-barn comparison was conducted between use of a anticoccidial ionophore and the method of the present invention for protecting poultry against coccidiosis. 51,000 birds were divided into two groups. One group was maintained on feed containing 60 mg per kilogram of feed of salinomycin sodium COXISTAC (Pfizer). The second group was administered the vaccine prepared in accordance with Example 1 on Day 1. These birds were maintained on feed with no medication for 10 days. Thereafter, 60 mg per kilogram of salinomycin sodium was utilized in the feed for a further 10 days after which the animals were maintained on non-medicated feed until shipping. A virginiamysin based growth promotant STAFAC (SmithKline Beecham) at a level of 11 mg per kilogram of feed was used as a growth promotant in both groups.
# The above example was repeated comparing vaccine/monensin treatment with monensin alone and the results from this are shown in Table 2.
# coccidiosis [2] = experiment: Paired-barn comparison of anticoccidial ionophore (salinomycin) vs vaccine plus salinomycin for protecting poultry against coccidiosis; type: in vivo
# Procedure: as §1, §2
# [3] = birds, market age 42 days / 52 days
SMILES,EEF (European Efficiency Factor) (coccidiosis [1]),Feed Conversion Ratio (coccidiosis [1]),Avg. Weight (coccidiosis [1]; average at market (Monesin group: market age 47 days)),"Livability (%) (coccidiosis [1]; vaccine group: 2 weeks no medication, then 2 weeks monensin in feed)",Avg. Weight (coccidiosis [2]; [3]),Feed Conversion Ratio (coccidiosis [2]; [3]),"Livability (%) (coccidiosis [2]; birds, market age 42 days / 52 days, salinomycin sodium 60 mg per kg feed (vaccine group: 10 days no medication, then 10 days salinomycin))","EEF (European Efficiency Factor) (coccidiosis [2]; related to percent livability, average market weight, feed conversion rate and market age)"
"CC[C@@]1([C@@H]2O[C@@H]([C@H]3O[C@@](O)(CO)[C@H](C)C[C@@H]3C)C[C@@H]2C)CC[C@H]([C@]2(C)CC[C@]3(C[C@H](O)[C@@H](C)[C@@H]([C@@H](C)[C@@H](OC)[C@H](C)C(=O)O)O3)O2)O1 [Monesin, monensin]",2.23,2.19,2.44 kg,94.1%,–,–,–,–
"CC[C@@H](C(=O)[C@@H](C)[C@@H](O)[C@H](C)[C@@H]1O[C@@H]([C@@H](CC)C(=O)O)CC[C@@H]1C)[C@H]1O[C@]2(C=C[C@@H](O)[C@]3(CC[C@@](C)([C@H]4CC[C@](O)(CC)[C@H](C)O4)O3)O2)[C@H](C)C[C@@H]1C [Salinomycin, salinomycin sodium]",–,–,–,–,2.72 kg,2.16,91.8%,2.23
